Patent US20120053189A1, “BTK INHIBITORS FOR THE TREATMENT OF IMMUNE MEDIATED CONDITIONS” (Pharmacyclics, Inc., priority 2010, published 2012)
pEC50, pIC50: −log10 of the molar value. “Also recorded” adds a separate entry of the source. Where two headings read alike, the source gives them in different places.

Experiments:
[1] = system: murine collagen-antibody-induced arthritis model (CAIA model); assay: murine collagen-antibody-induced arthritis model (CAIA model); format: in vivo, DBA/1 mice; conditions: for dose that completely suppressed the development of arthritis: mouse, in vivo
Description: DBA/1 mice were injected intravenously with 2 mg of Arthrogen-CIA 5 mouse anti-bovine collagen (Chondrex) on day 0. Three days later, these mice were injected IP with 50 μg of LPS.
Mice were monitored for clinical symptoms daily with the criteria below.
0=normal 1=1 hind or fore paw joint affected 2=2 hind or fore paw joints affected 3=3 hind or fore paw joints affected 4=moderate (erythema and moderate swelling, or =4 digit joints affected) 5=severe (diffuse erythema and severe swelling entire paw, unable to flex digits)

[2] = system: human whole blood basophils; assay: whole blood basophil assay, CD63 after anti-IgE stimulation; format: cell-based; conditions: for pEC50: human whole blood basophils, read-out: EC50 of inhibition of anti-IgE mediated upregulation of CD63
Description: Fresh whole blood was collected on the day of the experiment from a healthy volunteer. Whole blood is stimulated with 10 ng/mL of rhIL-3 (Invitrogen) and […] of anti-IgE (Beckman Coulter) in Basophil Stimulation Buffer (20 mM HEPES pH 7.4, 125 mM NaCl, 5 mM KCl, 2.5 mM CaCl2, 1 mM MgCl2, 0.5% Glucose, 0.1% BSA) at 37° C. for 15 min. The reaction was terminated by the addition of EDTA. The stimulated whole blood was then stained with a fluorescent three-antibody cocktail (FITC-Anti-CD63/PerCP-Anti-HLA-DR/PE-Anti-CD123) (BD Biosciences) at room temperature in the dark for 15 min. Following staining, blood was treated with 1×FACS Lysing solution (BD Biosciences) for 15 minutes to lyse the RBC. The lysed RBC supernatant was removed following centrifugation for […]. The cell pellet was resuspended and fixed in 0.5% paraformaldehyde in PBS. The percentage of basophil degranulation was determined by the % of CD63 cells that were CD123 positive and HLA-DR negative.

CD3+ T cells = assay: T cell viability; format: cell-based, human; conditions: concentrations below 10 μM
Description: (§1) CD20+ B and CD3+ T cells were purified by negative selection (RosetteSep, >90% purity) from Buffy coat PBMC and viably frozen in 10% DMSO. Cells were thawed at 37° C. and maintained in growth media (RPMI media containing 10% FCS). B cells were stimulated with goat anti-human IgM F(ab′)2 (10 ug/ml, Invitrogen) and T cells were stimulated with anti-CD3/CD28 coated beads (Dynabeads) at a 1:1 bead/cell ratio. Cells were stained with PE-CD69 (BD) and analyzed by flow cytometry, gating on viable lymphocytes. […] For washout experiments, cells were rinsed 3× in 10 volumes of growth media, a protocol that was confirmed to completely wash away inhibition of BCR signaling by a reversible Btk inhibitor.

CD20+ B cells [3] = assay: B cell viability; format: cell-based, human; conditions: concentrations below 10 μM
Description: as §1

CD20+ B cells [4] = assay: human B cell activation following BCR stimulation by anti-IgM (CD69); format: cell-based; conditions: read-out: EC50 of inhibition of human B cell activation
Description: as §1

in vivo = conditions: CDIGS, rat
human monocytes = assay: human monocyte cytokine release assay (IgG stimulation); format: cell-based; conditions: for release of IL-1β from human monocytes following FcγR stimulation with IgG: FIG. 2
Description: Human monocytes were isolated from Ficoll-gradient purified PBMC from healthy human volunteers using negative selection with EasySep (StemCells) magnetic beads. CD14+monocytes were then stimulated with IFN-gamma for 6 days, and then 2×10^6 cells were plated onto 10 μg/ml of human IgG (R&D Biosystems) coated onto Immulon 4 ELISA plates. […] Supernatants were collected from the plates and cytokines levels were determined with ELISA kits.

[5] = system: murine collagen-induced arthritis (CIA) model; assay: murine collagen-induced arthritis (CIA) model; format: in vivo, mice; conditions: for inflammatory synovitis, pannus formation, synovial fluid cytokines, cartilage damage and bone erosion: preventive and established murine CIA models
Description: Male mice 7 weeks of age were purchased from Harlan Laboratories, and acclimated for a minimum of 3 days. Mice were immunized on Day 0 with 150 μg of bovine collagen II (Chondrex Inc) in CFA (Sigma), and boosted with 100 μg of bovine collagen II in IFA on day 21. Fore and hind paws of mice were scored daily with a clinical scoring system using the following criteria:
0=normal 1=1 hind or fore paw joint affected • with minimal diffuse swelling and erythema (redness of the skin due to congestion of the capillaries)
2=2 hind or fore paw joints affected • with minimal diffuse swelling and erythema (redness of the skin due to congestion of the capillaries)
3=3 hind or fore paw joints affected • with minimal diffuse swelling and erythema (redness of the skin due to congestion of the capillaries)
4=minimum of 4 joints affected • marked diffuse swelling and erythema (redness of the skin due to congestion of the capillaries)
5=minimum entire paw, • unable to flex (Severe diffuse swelling and erythema redness of the skin due to congestion of the capillaries
Mice were enrolled randomly into treatment groups when a minimum mean paw score of 1.0 was established. The treatments started on the day of enrollment and continued for 12 days. Clinical scores were monitored daily for each animal in the treatment groups.

JAK1 = JAK1 (Homo sapiens, UniProt P23458); assay: kinase selectivity, JAK1; format: biochemical
Sequence of JAK1 (P23458 whole entry): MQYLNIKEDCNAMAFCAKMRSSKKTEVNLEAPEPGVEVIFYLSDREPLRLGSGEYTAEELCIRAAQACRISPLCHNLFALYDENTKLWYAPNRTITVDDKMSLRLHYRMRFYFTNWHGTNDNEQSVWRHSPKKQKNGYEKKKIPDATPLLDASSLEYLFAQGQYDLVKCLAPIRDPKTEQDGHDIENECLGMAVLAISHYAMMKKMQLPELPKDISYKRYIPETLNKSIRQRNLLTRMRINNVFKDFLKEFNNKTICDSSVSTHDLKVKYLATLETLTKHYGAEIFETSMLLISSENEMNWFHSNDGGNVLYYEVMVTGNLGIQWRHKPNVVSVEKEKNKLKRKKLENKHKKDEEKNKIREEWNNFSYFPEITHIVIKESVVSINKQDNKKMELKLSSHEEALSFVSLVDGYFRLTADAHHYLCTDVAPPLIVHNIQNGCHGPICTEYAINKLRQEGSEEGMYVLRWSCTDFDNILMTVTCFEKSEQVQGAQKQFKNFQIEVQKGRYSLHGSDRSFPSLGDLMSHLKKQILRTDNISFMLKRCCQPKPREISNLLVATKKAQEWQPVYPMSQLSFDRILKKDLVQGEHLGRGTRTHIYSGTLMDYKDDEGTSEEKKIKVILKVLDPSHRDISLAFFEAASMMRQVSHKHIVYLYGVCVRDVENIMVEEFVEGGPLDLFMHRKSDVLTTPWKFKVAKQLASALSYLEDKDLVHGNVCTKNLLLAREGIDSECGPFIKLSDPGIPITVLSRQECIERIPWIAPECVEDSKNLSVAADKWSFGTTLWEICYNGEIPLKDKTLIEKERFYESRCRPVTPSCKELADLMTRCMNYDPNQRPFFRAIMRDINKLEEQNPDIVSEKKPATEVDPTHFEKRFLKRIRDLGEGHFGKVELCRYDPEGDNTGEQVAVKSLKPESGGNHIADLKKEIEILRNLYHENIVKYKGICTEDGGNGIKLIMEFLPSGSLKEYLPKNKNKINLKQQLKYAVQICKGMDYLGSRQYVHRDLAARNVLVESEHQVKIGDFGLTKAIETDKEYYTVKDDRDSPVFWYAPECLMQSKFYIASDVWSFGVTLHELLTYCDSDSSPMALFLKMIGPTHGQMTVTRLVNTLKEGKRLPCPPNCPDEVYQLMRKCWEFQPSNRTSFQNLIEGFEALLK

VEGFR2 = VEGFR2 (Homo sapiens, UniProt P35968); assay: kinase selectivity, VEGFR2; format: biochemical
RAW264.7 cells = assay: IgG mediated phagocytosis of Zymosan particles; format: cell-based, murine; conditions: IgG opsonized Zymosan particles, RAW cells
Description: Prelabeled Zymosan particles were first opsonized with mouse IgG at 37 C for 30 min, and then centrifuged down and washed several times with PBS. The Zymosan particles are the resuspended in PBS.

JAK3 = target: T1, JAK3 (Homo sapiens, UniProt P52333); assay: kinase selectivity, JAK3; format: biochemical
T1 sequence (P52333 1-1124): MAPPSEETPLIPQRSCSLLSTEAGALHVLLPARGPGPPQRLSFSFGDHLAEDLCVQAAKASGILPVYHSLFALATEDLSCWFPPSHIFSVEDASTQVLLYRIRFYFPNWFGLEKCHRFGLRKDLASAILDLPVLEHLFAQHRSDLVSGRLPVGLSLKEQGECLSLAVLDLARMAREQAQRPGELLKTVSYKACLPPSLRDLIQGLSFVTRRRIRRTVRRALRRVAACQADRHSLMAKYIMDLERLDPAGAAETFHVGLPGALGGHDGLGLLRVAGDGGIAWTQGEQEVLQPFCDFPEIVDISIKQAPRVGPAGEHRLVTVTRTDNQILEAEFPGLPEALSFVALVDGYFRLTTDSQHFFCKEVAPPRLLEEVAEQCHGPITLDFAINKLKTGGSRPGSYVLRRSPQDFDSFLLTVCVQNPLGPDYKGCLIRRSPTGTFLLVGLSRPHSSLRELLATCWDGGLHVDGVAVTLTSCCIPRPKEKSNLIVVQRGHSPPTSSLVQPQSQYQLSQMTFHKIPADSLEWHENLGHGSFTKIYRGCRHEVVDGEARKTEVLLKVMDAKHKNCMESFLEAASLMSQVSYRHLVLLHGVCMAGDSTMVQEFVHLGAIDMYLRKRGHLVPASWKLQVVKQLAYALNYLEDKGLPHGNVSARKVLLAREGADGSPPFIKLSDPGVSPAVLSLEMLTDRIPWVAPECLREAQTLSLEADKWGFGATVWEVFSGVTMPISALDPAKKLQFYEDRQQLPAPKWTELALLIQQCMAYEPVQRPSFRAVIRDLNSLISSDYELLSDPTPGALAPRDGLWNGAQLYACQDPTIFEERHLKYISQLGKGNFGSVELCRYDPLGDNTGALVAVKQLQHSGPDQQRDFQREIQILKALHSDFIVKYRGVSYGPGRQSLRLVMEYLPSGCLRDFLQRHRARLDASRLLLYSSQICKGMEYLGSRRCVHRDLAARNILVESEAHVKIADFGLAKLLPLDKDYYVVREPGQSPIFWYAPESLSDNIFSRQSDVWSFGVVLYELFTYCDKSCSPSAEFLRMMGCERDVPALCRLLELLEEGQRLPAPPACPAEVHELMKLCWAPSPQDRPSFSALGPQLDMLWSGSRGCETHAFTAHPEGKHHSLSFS

in vitro = conditions: human, liver microsomes
JAK2 = JAK2 (Homo sapiens, UniProt O60674); assay: kinase selectivity, JAK2; format: biochemical
Sequence of JAK2 (O60674 whole entry): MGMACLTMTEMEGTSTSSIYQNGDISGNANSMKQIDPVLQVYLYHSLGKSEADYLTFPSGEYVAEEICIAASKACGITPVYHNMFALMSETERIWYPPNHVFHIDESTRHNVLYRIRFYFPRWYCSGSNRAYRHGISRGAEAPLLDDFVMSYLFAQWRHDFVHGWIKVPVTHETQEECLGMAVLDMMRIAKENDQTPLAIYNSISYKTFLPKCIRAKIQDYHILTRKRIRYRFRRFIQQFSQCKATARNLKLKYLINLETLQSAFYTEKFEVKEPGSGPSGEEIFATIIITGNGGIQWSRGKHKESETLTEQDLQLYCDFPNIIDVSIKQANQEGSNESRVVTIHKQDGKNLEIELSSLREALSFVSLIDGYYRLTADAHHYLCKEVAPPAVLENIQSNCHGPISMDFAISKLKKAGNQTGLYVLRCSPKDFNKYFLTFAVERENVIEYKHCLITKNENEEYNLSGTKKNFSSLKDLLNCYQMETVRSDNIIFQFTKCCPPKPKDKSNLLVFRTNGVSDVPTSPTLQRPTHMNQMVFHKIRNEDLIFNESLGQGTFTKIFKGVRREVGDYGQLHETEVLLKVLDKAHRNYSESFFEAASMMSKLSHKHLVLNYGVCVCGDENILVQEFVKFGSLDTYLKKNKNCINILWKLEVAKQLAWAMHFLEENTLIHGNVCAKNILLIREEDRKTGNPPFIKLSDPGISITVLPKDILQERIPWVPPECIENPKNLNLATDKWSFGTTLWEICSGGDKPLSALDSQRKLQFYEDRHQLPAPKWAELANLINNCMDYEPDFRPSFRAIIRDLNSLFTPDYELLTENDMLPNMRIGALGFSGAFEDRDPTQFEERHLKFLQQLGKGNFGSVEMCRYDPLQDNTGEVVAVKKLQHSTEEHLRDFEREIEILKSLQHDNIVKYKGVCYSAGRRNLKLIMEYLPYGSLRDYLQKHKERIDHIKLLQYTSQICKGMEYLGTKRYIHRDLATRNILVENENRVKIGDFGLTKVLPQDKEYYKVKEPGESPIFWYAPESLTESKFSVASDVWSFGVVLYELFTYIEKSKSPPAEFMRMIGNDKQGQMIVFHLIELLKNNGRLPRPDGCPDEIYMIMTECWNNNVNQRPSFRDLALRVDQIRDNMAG

[6] = hepatic extraction ratio in rats; format: in vivo; conditions: oral, 1-(AUC systemic÷AUC portal)
Description: The analyses were performed using nominal sample times and a noncompartmental method with uniform weighting. Pharmacokinetic parameter estimates included terminal half-life and area under the concentration-time curve (AUC). Extraction ratios were calculated as 1-(AUC systemic÷AUC portal).

[7] = interspecies scaling of clearance and estimation of efficacious human daily dosage; conditions: FIG. 7
Description: There is an excellent scaling of clearance (dose/AUC) within mice, rats and dogs, and therefore exposure to dose projection in humans is likely precise. Based on interspecies scaling of clearance, the human BW normalized CL/F was determined to be about 2.53 (FIG. 7).

Abl = Abl (Homo sapiens, UniProt P00519); assay: kinase selectivity, Abl; format: biochemical
Btk = Btk (Homo sapiens, UniProt Q06187); assay: Btk biochemical assays
Sequence of Btk (Q06187 whole entry): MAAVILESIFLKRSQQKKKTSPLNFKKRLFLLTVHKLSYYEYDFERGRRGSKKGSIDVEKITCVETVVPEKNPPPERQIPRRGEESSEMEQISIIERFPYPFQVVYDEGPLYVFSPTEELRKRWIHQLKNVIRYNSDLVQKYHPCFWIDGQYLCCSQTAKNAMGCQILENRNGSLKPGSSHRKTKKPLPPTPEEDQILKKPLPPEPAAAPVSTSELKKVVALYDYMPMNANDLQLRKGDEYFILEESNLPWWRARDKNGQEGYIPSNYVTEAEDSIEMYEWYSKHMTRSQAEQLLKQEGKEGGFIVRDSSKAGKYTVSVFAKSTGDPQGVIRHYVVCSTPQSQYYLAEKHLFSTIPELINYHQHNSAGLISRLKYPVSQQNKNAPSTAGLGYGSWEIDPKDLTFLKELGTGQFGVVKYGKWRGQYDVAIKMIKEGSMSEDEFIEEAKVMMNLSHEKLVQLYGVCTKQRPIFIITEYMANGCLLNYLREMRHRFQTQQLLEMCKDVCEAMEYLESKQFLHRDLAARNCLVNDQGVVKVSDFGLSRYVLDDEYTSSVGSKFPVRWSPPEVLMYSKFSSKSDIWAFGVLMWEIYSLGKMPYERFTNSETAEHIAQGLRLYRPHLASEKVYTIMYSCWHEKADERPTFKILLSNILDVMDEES

EGFR = EGFR (Homo sapiens, UniProt P00533); assay: kinase selectivity, EGFR; format: biochemical
Sequence of EGFR (P00533 25-1210, species assumed): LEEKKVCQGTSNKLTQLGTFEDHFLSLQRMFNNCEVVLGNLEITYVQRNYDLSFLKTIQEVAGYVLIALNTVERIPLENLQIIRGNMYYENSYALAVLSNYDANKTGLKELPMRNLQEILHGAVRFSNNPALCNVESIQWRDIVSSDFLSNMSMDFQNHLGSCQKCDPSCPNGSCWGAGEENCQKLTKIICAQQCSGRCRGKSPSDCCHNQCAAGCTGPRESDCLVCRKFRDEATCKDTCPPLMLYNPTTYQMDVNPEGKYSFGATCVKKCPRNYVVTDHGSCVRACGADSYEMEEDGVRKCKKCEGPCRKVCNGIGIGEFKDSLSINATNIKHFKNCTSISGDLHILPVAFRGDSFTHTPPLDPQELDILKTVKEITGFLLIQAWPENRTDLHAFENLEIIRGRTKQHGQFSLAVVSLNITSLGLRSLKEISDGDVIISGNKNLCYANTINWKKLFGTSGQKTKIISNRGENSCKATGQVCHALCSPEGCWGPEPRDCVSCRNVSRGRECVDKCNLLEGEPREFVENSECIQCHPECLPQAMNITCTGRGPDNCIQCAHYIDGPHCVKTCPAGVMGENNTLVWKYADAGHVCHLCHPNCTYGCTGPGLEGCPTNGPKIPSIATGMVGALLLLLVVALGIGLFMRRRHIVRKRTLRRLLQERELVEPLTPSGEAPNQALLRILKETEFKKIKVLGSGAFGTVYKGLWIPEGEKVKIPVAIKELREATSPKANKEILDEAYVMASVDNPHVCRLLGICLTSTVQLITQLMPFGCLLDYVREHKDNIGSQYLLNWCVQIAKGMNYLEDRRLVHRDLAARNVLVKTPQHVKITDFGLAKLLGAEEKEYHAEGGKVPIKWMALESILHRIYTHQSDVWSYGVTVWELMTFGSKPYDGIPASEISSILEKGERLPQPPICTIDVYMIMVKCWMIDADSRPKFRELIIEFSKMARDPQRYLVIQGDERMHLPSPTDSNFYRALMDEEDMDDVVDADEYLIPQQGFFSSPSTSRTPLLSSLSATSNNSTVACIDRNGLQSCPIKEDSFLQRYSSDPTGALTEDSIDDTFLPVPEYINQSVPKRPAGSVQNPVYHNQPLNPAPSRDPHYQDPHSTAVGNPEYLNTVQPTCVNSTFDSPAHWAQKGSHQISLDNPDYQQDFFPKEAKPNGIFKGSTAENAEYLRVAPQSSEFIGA

C[C@@H]1C[C@H]2[C@@H]3CCC4=CC(=O)C=C[C@]4(C)[C@@]3(F)[C@@H](O)C[C@]2(C)[C@@]1(O)C(=O)CO [dexamethasone, reference compound]
average clinical scores ([1]; 0.2 mg/kg, day 14): 1

C=CC(=O)N1CCC[C@@H](n2nc(-c3ccc(Oc4ccccc4)cc3)c3c(N)ncnc32)C1 [Compound 2, reference compound]
pEC50 [2]: 7.00 to 7.70
dose that completely suppressed the development of arthritis [1]: 6.25 mg/kg/day
T cell viability (CD3+ T cells): did not decrease
B cell viability (CD20+ B cells [3]): did not decrease
pEC50 (CD20+ B cells [4]): 8.70
bioavailability (in vivo; plasma, oral): 22.8%
release of IL-1β from human monocytes following FcγR stimulation with IgG (human monocytes; listed as (R)-1-(3-(4-amino-3-(4-phenoxyphenyl)-1H-pyrazolo[3,4-d]pyrimidin-1-yl)piperidin)): suppressed the release of IL-1b; also recorded: monocyte release inhibition of IL-1β
inflammatory synovitis, pannus formation, synovial fluid cytokines, cartilage damage and bone erosion [5]: dose-dependently inhibited

CN(Cc1cnc2nc(N)nc(N)c2n1)c1ccc(C(=O)N[C@@H](CCC(=O)O)C(=O)O)cc1 [methotrexate, reference compound]
clinical arthritis, disease course ([5]; 1.5 mg/kg/day): stabilized disease without further progression of arthritic swelling

CN(C)C/C=C/C(=O)N1CC[C@@H](n2nc(-c3ccc(Oc4ccccc4)cc3)c3c(N)ncnc32)C1 [Compound 1]
inhibition of JAK1 (JAK1): no significant inhibition
inhibition of VEGFR2 (VEGFR2): no significant inhibition
basophil activation following anti-IgE stimulation ([2]; FIG. 1): basophil activation inhibition
pEC50 ([2]; listed as (E)-1-4R)-3-(4-amino-3-(4-phenoxyphenyl)-1H-pyrazolo[3,4-d]pyrimidin-1-yl)pyrrol): ~7.04
concentration up to which IgG-mediated phagocytosis was not inhibited (RAW264.7 cells): > 10,000 nM
clinical arthritis ([1]; 0.8, 1.6 and 3.2 mg/kg/day, day 0 to day 14): completely prevented and suppressed clinical arthritis
dose that completely suppressed the development of arthritis [1]: 0.8 mg/kg/day
inhibition of JAK3 (JAK3): no significant inhibition
half-life (in vitro): 19.2 min
inhibition of JAK2 (JAK2): no significant inhibition
hepatic extraction ratio [6]: 0.289
allometric scaling of CL/F vs. Body Weight in multiple species [7]: linear
T cell viability (CD3+ T cells): did not decrease
B cell viability (CD20+ B cells [3]): did not decrease
pEC50 (CD20+ B cells [4]): 8.70
inhibition of Abl (Abl): no significant inhibition
pIC50 (Btk): 8.70 to 9.00
selectivity as inhibitor of Btk (Btk; compared with Compound 2 or dasatinib): more selective inhibitor of Btk
bioavailability (in vivo; in vivo): 24.7%
concentration inhibiting cytokine release from human monocytes (human monocytes): 20 to 100 nM
release of IL-1β from human monocytes following FcγR stimulation with IgG (human monocytes; listed as (E)-1-(R)-3-(4-amino-3-(4-phenoxyphenyl)-1H-pyrazolo[3,4-d]pyrimidin-1-yl)pyrro): suppressed the release of IL-1b; also recorded: monocyte release inhibition of IL-1β
inhibition of EGFR (EGFR): no significant inhibition
time after drug administration at which reversal of clinical arthritis was observed ([5]; 1.6 and 3.2 mg/kg/day): 1 days
clinical arthritic symptoms ([5]; 1.6 and 3.2 mg/kg/day, treatment for 12 days): reversed clinical arthritic symptoms
arthritic clinical scores ([5]; FIG. 4): reversal of arthritic clinical scores
EC50 of inhibition of overt manifestations of arthritis (clinical arthritic symptoms) ([5]; mice, CIA): 0.61 mg/kg/day
inflammatory synovitis, pannus formation, synovial fluid cytokines, cartilage damage and bone erosion [5]: dose-dependently inhibited
